In ChEMBL document CHEMBL1148896, “BI-32169, a bicyclic 19-peptide with strong glucagon receptor antagonist activity from Streptomyces sp” (J Nat Prod, 2004):
Bridge positions count the residues as written; N and C are the ends. Peptide text beside a SMILES is read from it. I, II: the chains in the order shown.

Biological target: Glucagon receptor (Homo sapiens, UniProt P47871)
Assay: Antagonist activity at human glucagon receptor expressed in BHK21 cells assessed as inhibition of glucagon-induced cAMP elevation by RIA
Type: functional, cell-based, BHK-21

Glucagon receptor, sequence (P47871 whole entry): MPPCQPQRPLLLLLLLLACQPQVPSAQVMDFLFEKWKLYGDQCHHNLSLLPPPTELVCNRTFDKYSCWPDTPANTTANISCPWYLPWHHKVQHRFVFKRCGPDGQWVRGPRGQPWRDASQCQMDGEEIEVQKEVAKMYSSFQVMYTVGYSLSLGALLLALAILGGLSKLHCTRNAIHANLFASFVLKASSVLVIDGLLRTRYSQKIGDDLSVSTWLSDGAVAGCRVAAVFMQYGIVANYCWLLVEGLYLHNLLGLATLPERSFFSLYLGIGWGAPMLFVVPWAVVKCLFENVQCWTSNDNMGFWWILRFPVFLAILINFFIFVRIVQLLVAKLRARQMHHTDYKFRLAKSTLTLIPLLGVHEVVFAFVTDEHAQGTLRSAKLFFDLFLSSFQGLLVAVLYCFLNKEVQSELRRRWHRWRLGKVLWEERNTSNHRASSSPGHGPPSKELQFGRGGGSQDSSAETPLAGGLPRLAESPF

IC50 [nM] | SMILES
440 | CC[C@H](C)[C@@H]1NC(=O)[C@@H]2CC(=O)NCC(=O)N[C@@H](CC(C)C)C(=O)N3CCC[C@H]3C(=O)N[C@@H](Cc3c[nH]c4ccccc34)C(=O)NCC(=O)N[C@@H](CSSC[C@@H](C(=O)O)NC(=O)[C@H](C)NC(=O)[C@H](Cc3c[nH]c4ccccc34)NC(=O)[C@@H]3CCCN3C(=O)[C@H]([C@@H](C)O)NC(=O)[C@H](CC(N)=O)NC(=O)[C@H](Cc3c[nH]c4ccccc34)NC(=O)CNC(=O)[C@@H]3CCCN3C1=O)C(=O)N1CCC[C@H]1C(=O)N[C@@H](CO)C(=O)N2 (GLPWGCPSDIPGWNTPWAC-OH; disulfide 6-19; lactam N-9)
320 | CC[C@H](C)[C@@H]1NC(=O)C[C@@H]2NC(=O)[C@H](CO)NC(=O)[C@@H]3CCCN3C(=O)[C@H](CSSC[C@@H](C(=O)OC)NC(=O)[C@H](C)NC(=O)[C@H](Cc3c[nH]c4ccccc34)NC(=O)[C@@H]3CCCN3C(=O)[C@H]([C@@H](C)O)NC(=O)[C@H](CC(N)=O)NC(=O)[C@H](Cc3c[nH]c4ccccc34)NC(=O)CNC(=O)[C@@H]3CCCN3C1=O)NC(=O)CNC(=O)[C@H](Cc1c[nH]c3ccccc13)NC(=O)[C@@H]1CCCN1C(=O)[C@H](CC(C)C)NC(=O)CNC2=O (I: IPGWNTPWAC-OMe / II: cyclo(CPSDGLPWG); disulfide I:10-II:1; amide I:N-II:4)
20000 | CC1CC(=O)c2c(cc3c(-c4c(O)cc(O)c5c(O)c6c(cc45)OC(C)CC6=O)c(O)cc(O)c3c2O)O1 (stereo not drawn) [CEPHALOCHROMIN]
